Results published in article PMC12147445, “Dual-Active Nanoimmunomodulators for the Synergistic Enhancement of the Antitumor Efficacy of Photodynamic Immunotherapy” (Biomaterials Research, 2025).

Assays:
[1] = Blood routine examination; assay type: in vivo, BALB/c female mice; conditions: CT26 tumor mice, i.v. every 2 d x5, day 18, no light, mean ± SD
Method: (§1) CT26 cells were inoculated on the back of BALB/c female mice to construct a subcutaneous tumor model (Fig. S2A). The groups were treated as follows (the same groupings as below): MAC (2.0 mg/kg), CPP (PIX content of 1.8 mg/kg), and CPPM (PIX and MAC contents of 1.8 and 2.0 mg/kg, respectively) were injected separately through the tail vein, and the light group was irradiated using a laser for 6 h after drug administration for 10 min (intensity of 50% and power of 0.68 W). The mice were treated every 2 d for a total of 5 treatments, and tumor volume and body weight were measured every other day. On day 18, the mice were executed by cervical dislocation, and their blood was removed and dissected. The spleens of the mice were weighed, and the mouse tumor tissues were stained for Ki67, terminal deoxynucleotidyl transferase dUTP nick end labeling (TUNEL), and CD3/CD8. Different concentrations of CPPM solutions were prepared with saline; 100 μl of CPPM solution was added into 2 ml of mouse blood and mixed well and incubated in a 37 °C water bath for 1 h. After centrifugation, 100 μl of the supernatant was taken into a 96-well plate, and the absorbance value was measured by an enzyme-labeling instrument at a wavelength of 540 nm and the hemolysis rate was calculated. In addition, blood biochemistry and blood routine indexes were analyzed, and hematoxylin–eosin (H&E) staining was performed on tumor tissues and major organs.

CT26 cells [2] = experiment: Cytotoxicity test by the MTT method; assay type: cell-based, mouse; conditions: for cytotoxicity (MTT), dark: CT26, no light, highest PIX 6 μg/ml and MAC 6.72 μg/ml, 6 h + 24 h
Method: CT26 cells were seeded into 96-well plates, and materials with different concentration gradients were prepared. Different materials were added into 96-well plates at 100 μl per well according to the concentration gradient, respectively. The highest concentration of PIX in CPP was 6 μg/ml. The highest concentrations of PIX and MAC in CPPM were 6 and 6.72 μg/ml, respectively. After 6 h of incubation, the CPP light group and CPPM light group were irradiated using infrared light for 3 min, and after 24 h, 20 μl of MTT reagent was added, and the absorbance was detected by an enzyme meter (570 nm) and the cell viability was calculated.

CT26 cells [3] = experiment: Flow cytometric apoptosis assay; assay type: cell-based, mouse; conditions: flow cytometry annexin V-FITC/PI, 6 h incubation; for apoptosis of CT26 cells, dark: no light
Method: After the CT26 cells were cultured on the wall, MAC, CPP, and CPPM were added and incubated for 6 h, and the light group was light-exposed for 5 min, respectively. After the cells were washed, 1× annexin V–FITC (195 μl), annexin V–FITC (5 μl), and PI staining solution (10 μl) were added, respectively, and the reaction was detected by flow cytometry after 10 to 15 min. The concentrations of PIX and MAC in CPPM were […] and 3.3 μg/l, respectively.

CT26 subcutaneous tumor = experiment: Tumor growth inhibition, CT26 subcutaneous tumor model; assay type: in vivo, BALB/c female mice; conditions: for antitumor effect (tumor size, volume, weight), no light: MAC 2.0 mg/kg, PIX 1.8 mg/kg, tail vein every 2 d x5, n = 5
Method: as §1

CT26 lung metastasis = experiment: In vivo antitumor metastasis study (lung metastasis model); set-up: species or system BALB/c female mice; conditions: 10 d of treatment, n = 3
Method: The mouse lung metastasis model was established by inoculating CT26 cells on the back of BALB/c female mice and injecting 2 × 10^6 CT26 cells labeled using green fluorescent protein through the tail vein when the tumor volume of the loaded mice reached 100 mm^3 (Fig. S2C). The groups were treated in the same manner as those in the immune response study. The mice were executed after 10 d of treatment, and the lung tissues of the mice were excised and photographed, and the metastatic lung nodules were quantified and H&E-stained for further examination of the extent of lung metastasis.

[4] = Drug content / loading efficiency (PIX by UV-Vis, MAC by HPLC); assay type: physicochemical; conditions: UV-Vis at 630 nm, sample diluted to 1 mg/ml
Method: CPP and CPPM were diluted to 1 mg/ml each. MAC was quantified by HPLC with a mobile phase A of water (0.2% TFA), a mobile phase B of acetonitrile, a flow rate of 1 ml/min, and a gradient elution of 10% to 100% B. The peak area of different concentrations of MAC was tested at 277 nm out, and the standard curve was plotted and the drug concentration was tested. PIX was quantified by ultraviolet–visible absorption spectrometry (UV–Vis), and the absorption values of different concentrations of PIX were determined at 630 nm, and the standard curve was plotted and the concentration of PIX was tested. Subsequently, the drug release profiles were determined by HPLC in release media at potential of hydrogen (pH) 5.3 and 7.4.

CT26 cells [5] = experiment: Intracellular ROS detection (DCFH-DA probe); assay type: cell-based, mouse; conditions: CT26, 6 h incubation
Method: The CT26 cells were incubated for 6 h with the addition of MAC, CPP, and CPPM materials, respectively, after wall culture. Subsequently, a 2,7-dichlorodihydrofluorescein diacetate probe was added to stain the cells for 30 min, and the CPP light group and CPPM light group were illuminated for 3 min, and the cells were observed and analyzed by microscopy. The experimental groupings were (the same groupings as below): blank group (blank), MAC group (MAC), CPP group (CPP), CPP light exposure group (CPP+), CPPM group (CPPM), and CPPM light exposure group (CPPM+). The concentration of PIX in CPP was 6 μg/l. The concentrations of PIX and MAC in CPPM were 6 and 6.72 μg/l, respectively.

[6] = In vitro 1O2 assay (Singlet Oxygen Sensor Green); assay type: physicochemical; conditions: PBS, SOSG probe, 630-nm laser, measured every 15 s
Method: To further explore the ROS-producing behavior of CPPM, MAC, CPP, and CPPM were prepared into 1-ml solutions with phosphate-buffered saline, and 10 μl of reactive oxygen Singlet Oxygen Sensor Green probe was added to each set of solutions. The resulting fluorescence intensity was measured as F0 in an F-302 model fluorescence spectrophotometer (excitation wavelength of 488.0 nm, wavelength range of 500.0 to 550.0 nm), and the fluorescence intensity was measured as Ft under 630-nm laser irradiation every 15 s. The concentration of PIX in CPP was 3 μg/l. The concentrations of PIX and MAC in CPPM were 3 and 3.3 μg/l, respectively.

CT26 cells [7] = experiment: ICD immunofluorescence assay (CRT, HMGB1); assay type: cell-based, mouse; conditions: CT26, PIX 6 μg/ml, MAC 6.72 μg/ml, 630 nm 29.8 mW cm^-2 10 min
Method: MAC, CPP, and CPPM were added to CT26 cells, and the light group was incubated for 6 h and then irradiated with light-emitting diode light (630 nm, 29.8 mW cm^−2) for 10 min. After continuing incubation for 4 h, paraformaldehyde (4%) and 0.1% Triton X-100 were added for fixation and permeabilization of cells, respectively. Subsequently, the cells were incubated with CRT or HMGB1 fluorescent primary antibody overnight ([…]), secondary antibody for 1 h, and DAPI for 20 min and then observed by microscopy. The PIX concentration was 6 μg/ml, and the MAC concentration was 6.72 μg/ml.

Compound: CCCNS(=O)(=O)Nc1ncnc(OCCOc2ncc(Br)cn2)c1-c1ccc(Br)cc1 [MAC, Macitentan, reference compound]
- PCT [1]: 0.21 ± 0.06%
- PDW [1]: 17.89 ± 0.54
- Mon ([1]; reference 0.00–0.30): 5.54 ± 1.77 10^9/l
- Gran ([1]; reference 0.10–1.80): 116.23 ± 32.29 10^9/l
- Lymph ([1]; reference 0.70–5.70): 24.74 ± 5.26 10^9/l
- WBC ([1]; reference 0.80–6.80): 132.48 ± 37.09 10^9/l
- RBC ([1]; reference 6.36–9.42): 7.82 ± 0.54 10^12/l
- RDW ([1]; reference 13.00–17.00): 14.91 ± 0.48%
- MCH ([1]; reference 15.80–19.00): 16.61 ± 1.12 pg
- HCT ([1]; reference 34.60–44.60): 37.4 ± 2.73%
- HCV ([1]; reference 48.20–58.30): 52.75 ± 2.51 fL
- HGB ([1]; reference 110.00–143.00): 115.11 ± 15.08 g/L
- MCHC ([1]; reference 302.00–353.00): 318.78 ± 20.68 g/L
- cytotoxicity (MTT), dark (CT26 cells [2]): no significant toxic effects
- apoptosis of CT26 cells, dark (CT26 cells [3]): lower apoptosis rates
- antitumor effect (tumor size, volume, weight), no light (CT26 subcutaneous tumor): low antitumor properties
- lung metastasis, no light (CT26 lung metastasis): lung metastasis obviously occurred

Compound: C (PEG5000-Mal)-VRARTR-PIX [CPP, PEG5000-Mal assembled with CP; CPP+ is the light exposure group]
- loading efficiency of PIX [4]: 12.09%
- cytotoxicity (MTT), light (CT26 cells [2]; CT26, 6 h incubation then light 3 min, 24 h, highest PIX 6 μg/ml): stronger cytotoxicity
- cytotoxicity (MTT), dark (CT26 cells [2]): no significant toxic effects
- apoptosis of CT26 cells, light (CT26 cells [3]; light 5 min): significantly higher
- apoptosis of CT26 cells, dark (CT26 cells [3]): lower apoptosis rates
- antitumor effect (tumor size, volume, weight), no light (CT26 subcutaneous tumor): low antitumor properties
- antitumor effect (tumor size, volume, weight), light (CT26 subcutaneous tumor; PIX 1.8 mg/kg (MAC 2.0 mg/kg), tail vein every 2 d x5, laser 10 min 6 h after dosing, n = 5): able to inhibit tumor growth
- lung metastasis, light (CT26 lung metastasis; laser): a few lung metastases were visible
- lung metastasis, no light (CT26 lung metastasis): lung metastasis obviously occurred
- intracellular ROS, light (CT26 cells [5]; light 3 min): showed green fluorescence
- intracellular ROS, dark (CT26 cells [5]; no light): did not produce ROS
- 1O2 generation [6]: could produce ^1O2 under light conditions
- CRT expression on the cell membrane under PDT (CT26 cells [7]): increase the expression of CRT on the cell membrane
- HMGB1 in tumor cells under PDT (CT26 cells [7]): significantly attenuated
